From ChEMBL document CHEMBL1201862, “PubChem BioAssay data set” (2004)
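All cell lines were grown in 96-well plates and treated with compound for 48 hours. GI50 is the concentration that inhibits growth by half.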 Calls of active or inactive are those of the source. Cut-off read from the data, not from the text of the source: active = GI50 up to about 1.1 µM and inactive = higher. Non-standard residues stand in square brackets, D forms with d. Residues, ends and D or L forms follow the SMILES beside them. ξ: configuration not given here. Pen = CC(C)(S)[C@H](N)C(=O)O; ξL = CC(C)CC(N)C(=O)O

How the values were obtained:
Assay in all cases: NCI anticancer screen, dose series, 48 h
A549 = test system: A549
DMS-114 = test system: DMS-114
HCC 2998 = test system: HCC 2998
HOP-18 = test system: HOP-18
HOP-62 = test system: HOP-62
HT-29 = test system: HT-29
M19-MEL = test system: M19-MEL
MCF7 = test system: MCF7
Malme-3M = test system: Malme-3M
SK-MEL-2 = test system: SK-MEL-2
SK-MEL-5 = test system: SK-MEL-5
XF498 = test system: XF498
786-0 = test system: 786-0
ACHN = test system: ACHN

**Q.** How did the GI50 (A549) turn out when `CN(C)CCNC(=O)c1cc(Cl)cc2cc3ccccc3nc12` was run?
**A.** 0.557 µM (active)

**Q.** And the GI50 (DMS-114)?
**A.** 0.792 µM (active)

**Q.** And the GI50 (HCC 2998)?
**A.** 1.39 µM (inactive)

**Q.** What about the GI50 (HOP-18) of the same compound?
**A.** 6.44 µM (inactive)

**Q.** What about the GI50 (HOP-62) of the same compound?
**A.** 1.62 µM (inactive)

**Q.** And the GI50 (HT-29)?
**A.** 0.455 µM (active)

**Q.** What about the GI50 (M19-MEL) of the same compound?
**A.** 1.3 µM (inactive)

**Q.** And the GI50 (MCF7)?
**A.** 0.757 µM (active)

**Q.** And the GI50 (Malme-3M)?
**A.** 5.73 µM (inactive)

**Q.** And the GI50 (SK-MEL-2)?
**A.** 1.98 µM (inactive)

**Q.** And the GI50 (SK-MEL-5)?
**A.** 1.31 µM (inactive)

**Q.** What about the GI50 (XF498) of the same compound?
**A.** 0.966 µM (active)

**Q.** How did the GI50 (A549) turn out when `C=C1C[C@@H](O)C[C@@]2(C)C[C@@H]3OC(=O)C(=C)[C@@H]3C[C@H]12` was run?
**A.** 23 µM (inactive)

**Q.** And the GI50 (DMS-114)?
**A.** 8.73 µM (inactive)

**Q.** And the GI50 (HCC 2998)?
**A.** 3.82 µM (inactive)

**Q.** What about the GI50 (HOP-18) of the same compound?
**A.** 3.98 µM (inactive)

**Q.** And the GI50 (HOP-62)?
**A.** 15.4 µM (inactive)

**Q.** And the GI50 (HT-29)?
**A.** 2.94 µM (inactive)

**Q.** What about the GI50 (M19-MEL) of the same compound?
**A.** 20.4 µM (inactive)

**Q.** And the GI50 (MCF7)?
**A.** 3.78 µM (inactive)

**Q.** What about the GI50 (Malme-3M) of the same compound?
**A.** 3.37 µM (inactive)

**Q.** And the GI50 (SK-MEL-2)?
**A.** 11.9 µM (inactive)

**Q.** What about the GI50 (SK-MEL-5) of the same compound?
**A.** 3.51 µM (inactive)

**Q.** And the GI50 (XF498)?
**A.** 0.678 µM (active)

**Q.** Which GI50 (A549) does the source give for `CCOC(=O)CNC(=O)NC12CC3CC(CC(C3)C1)C2` here?
**A.** 229 µM (inactive)

**Q.** And the GI50 (DMS-114)?
**A.** 179 µM (inactive)

**Q.** What about the GI50 (HCC 2998) of the same compound?
**A.** 142 µM (inactive)

**Q.** And the GI50 (HOP-18)?
**A.** 161 µM (inactive)

**Q.** What about the GI50 (HOP-62) of the same compound?
**A.** 185 µM (inactive)

**Q.** And the GI50 (HT-29)?
**A.** 366 µM (inactive)

**Q.** And the GI50 (M19-MEL)?
**A.** 111 µM (inactive)

**Q.** And the GI50 (MCF7)?
**A.** 115 µM (inactive)

**Q.** And the GI50 (Malme-3M)?
**A.** 133 µM (inactive)

**Q.** And the GI50 (SK-MEL-2)?
**A.** 141 µM (inactive)

**Q.** What about the GI50 (SK-MEL-5) of the same compound?
**A.** 131 µM (inactive)

**Q.** And the GI50 (XF498)?
**A.** 22.1 µM (inactive)

**Q.** Which GI50 (A549) does the source give for `c1ccc2c(c1)SCCc1cn[nH]c1-2` here?
**A.** > 100 µM (inactive)

**Q.** What about the GI50 (DMS-114) of the same compound?
**A.** > 100 µM (inactive)

**Q.** What about the GI50 (HCC 2998) of the same compound?
**A.** > 100 µM (inactive)

**Q.** What about the GI50 (HOP-18) of the same compound?
**A.** > 100 µM (inactive)

**Q.** And the GI50 (HOP-62)?
**A.** > 100 µM (inactive)

**Q.** What about the GI50 (HT-29) of the same compound?
**A.** > 100 µM (inactive)

**Q.** And the GI50 (M19-MEL)?
**A.** > 100 µM (inactive)

**Q.** What about the GI50 (MCF7) of the same compound?
**A.** > 100 µM (inactive)

**Q.** And the GI50 (Malme-3M)?
**A.** > 100 µM (inactive)

**Q.** What about the GI50 (SK-MEL-2) of the same compound?
**A.** > 100 µM (inactive)

**Q.** What about the GI50 (SK-MEL-5) of the same compound?
**A.** > 100 µM (inactive)

**Q.** And the GI50 (XF498)?
**A.** > 100 µM (inactive)

**Q.** Which GI50 (A549) does the source give for `CN(C)CCOc1cc2c(c3ccccc13)-c1ccccc1C2=O` here?
**A.** 9.62 µM (inactive)

**Q.** What about the GI50 (DMS-114) of the same compound?
**A.** 1.09 µM (active)

**Q.** And the GI50 (HCC 2998)?
**A.** 1.75 µM (inactive)

**Q.** What about the GI50 (HOP-18) of the same compound?
**A.** 2.07 µM (inactive)

**Q.** What about the GI50 (HOP-62) of the same compound?
**A.** 1.19 µM (inactive)

**Q.** And the GI50 (HT-29)?
**A.** 1.19 µM (inactive)

**Q.** And the GI50 (M19-MEL)?
**A.** 1.35 µM (inactive)

**Q.** And the GI50 (MCF7)?
**A.** 1.1 µM (active)

**Q.** What about the GI50 (Malme-3M) of the same compound?
**A.** 2.19 µM (inactive)

**Q.** What about the GI50 (SK-MEL-2) of the same compound?
**A.** 1.95 µM (inactive)

**Q.** And the GI50 (SK-MEL-5)?
**A.** 1.58 µM (inactive)

**Q.** What about the GI50 (XF498) of the same compound?
**A.** 1.6 µM (inactive)

**Q.** `C=CC1(c2ccccc2Cl)N/C(=C/OCC)CO1` (configuration not stated) was tested. Which GI50 (786-0) did it give?
**A.** 51.5 µM (inactive)

**Q.** What about the GI50 (A549) of the same compound?
**A.** 38.2 µM (inactive)

**Q.** And the GI50 (ACHN)?
**A.** > 100 µM (inactive)

**Q.** And the GI50 (DMS-114)?
**A.** > 100 µM (inactive)

**Q.** And the GI50 (HCC 2998)?
**A.** > 100 µM (inactive)

**Q.** What about the GI50 (HOP-18) of the same compound?
**A.** > 100 µM (inactive)

**Q.** What about the GI50 (HOP-62) of the same compound?
**A.** > 100 µM (inactive)

**Q.** What about the GI50 (HT-29) of the same compound?
**A.** > 100 µM (inactive)

**Q.** And the GI50 (M19-MEL)?
**A.** > 100 µM (inactive)

**Q.** And the GI50 (Malme-3M)?
**A.** > 100 µM (inactive)

**Q.** What about the GI50 (SK-MEL-2) of the same compound?
**A.** > 100 µM (inactive)

**Q.** What about the GI50 (SK-MEL-5) of the same compound?
**A.** > 100 µM (inactive)

**Q.** What about the GI50 (XF498) of the same compound?
**A.** > 100 µM (inactive)

**Q.** Which GI50 (A549) does the source give for `Cc1cc(O)c2c(c1O)C(=O)C13C(=C(O)C4C(O)C1C1C(O)C3C(O)=C3C(=O)c5c(O)cc(C)c(O)c5C(=O)C341)C2=O` (configuration not stated) here?
**A.** 0.0311 µM (active)

**Q.** And the GI50 (DMS-114)?
**A.** 0.0146 µM (active)

**Q.** What about the GI50 (HCC 2998) of the same compound?
**A.** 0.032 µM (active)

**Q.** And the GI50 (HOP-18)?
**A.** 0.0615 µM (active)

**Q.** What about the GI50 (HOP-62) of the same compound?
**A.** 0.207 µM (active)

**Q.** What about the GI50 (HT-29) of the same compound?
**A.** 0.0451 µM (active)

**Q.** What about the GI50 (M19-MEL) of the same compound?
**A.** 0.0545 µM (active)

**Q.** And the GI50 (MCF7)?
**A.** 0.0577 µM (active)

**Q.** What about the GI50 (Malme-3M) of the same compound?
**A.** 0.0428 µM (active)

**Q.** And the GI50 (SK-MEL-2)?
**A.** 0.172 µM (active)

**Q.** And the GI50 (SK-MEL-5)?
**A.** 0.15 µM (active)

**Q.** What about the GI50 (XF498) of the same compound?
**A.** 0.134 µM (active)

**Q.** Which GI50 (A549) does the source give for `CSCC[C@H](NC(=O)C(CC(C)C)NC(=O)[C@H](Cc1c[nH]cn1)NC(=O)CNC(=O)[C@@H](NC(=O)[C@@H](C)NC(=O)[C@H](Cc1c[nH]c2ccccc12)NC(=O)[C@H](CCC(N)=O)NC(=O)[C@@H](N)CC(N)=O)C(C)(C)SC)C(N)=O` (some centres not stated) (H-NQW[dA][Pen](Me)GH[ξL]M-NH2) here?
**A.** > 100 µM (inactive)

**Q.** And the GI50 (DMS-114)?
**A.** > 100 µM (inactive)

**Q.** What about the GI50 (HCC 2998) of the same compound?
**A.** > 100 µM (inactive)

**Q.** What about the GI50 (HOP-18) of the same compound?
**A.** > 100 µM (inactive)

**Q.** And the GI50 (HOP-62)?
**A.** > 100 µM (inactive)

**Q.** And the GI50 (HT-29)?
**A.** > 100 µM (inactive)

**Q.** What about the GI50 (M19-MEL) of the same compound?
**A.** > 100 µM (inactive)

**Q.** And the GI50 (MCF7)?
**A.** > 100 µM (inactive)

**Q.** What about the GI50 (Malme-3M) of the same compound?
**A.** > 100 µM (inactive)

**Q.** And the GI50 (SK-MEL-2)?
**A.** > 100 µM (inactive)

**Q.** And the GI50 (SK-MEL-5)?
**A.** > 100 µM (inactive)

**Q.** And the GI50 (XF498)?
**A.** > 100 µM (inactive)
